Data as given in patent US9457081B2, “Combination therapy using c-Met inhibitor and beta-catenin inhibitor” (Samsung Electronics Co., Ltd., priority 2013, dated 2016).

Legend:
Format in all cases: cell-based
HT-29 cells = experiment: HT-29 cell proliferation / viability (CellTiter Glo luminescence); conditions: crizotinib administered alone, 0-20 nM, 72 hours
Method: To confirm the effect of co-administration in a colon cancer cell on which an anti-c-Met antibody has no effect when administered alone, HT-29 (ATCC, HTB-38) cells were used for assaying the effect of co-administration on cell proliferation.
In particular, 5000 cells of HT-29 cell were incubated in 96-well plate (medium: 10% FBS in RPMI 1640 (GIBCO), incubation temperature: 37° C.). 24 hours after, the incubated cells were treated with L3-1Y/IgG2 prepared in reference example or anti-c-Met antibody 1 (heavy chain: SEQ ID NO: 109; light chain: SEQ ID NO: 110) and beta-catenin inhibitor XAV-939 (Selleck chemical). In particular, 72 hours after the antibody treatment, 100 uL of CellTiter Glo solution (Promega, G7572) was added to each well and left at room temperature for 30 minutes. The number of the cells was counted through luminescence signal, and the luminescence signal was recorded using Envision 2104 Multi-label Reader (Perkin Elmer). In the experiment, L3-1Y/IgG2 was used at the amount of 0, 0.016, 0.08, 0.4, and 2 μg/ml, and XAV-939 was used at the fixed amount of 5 uM. […]
In particular, 5000 cells of HT-29 cell were incubated in 96-well plate (medium: 10% FBS in RPMI 1640 (GIBCO), incubation temperature: 37° C.). […] The number of the cells was counted through luminescence signal, and the luminescence signal was recorded using Envision 2104 Multi-label Reader (Perkin Elmer). […]

Lovo cells = experiment: Lovo cell proliferation (CellTiter Glo luminescence); conditions: Lovo (FIG. 5); crizotinib administered alone; 72 hours
Method: To confirm the effect of co-administration in a colon cancer cell on which a c-Met inhibitor has no effect when administered alone, Lovo (ATCC, CCL-229) cells were used for assaying the effect of co-administration on cell proliferation.
In particular, 5000 cells of Lovo cell were incubated in 96-well plate (medium: 10% FBS in RPMI 1640 (GIBCO), incubation temperature: 37° C.). 24 hours after, the incubated cells were treated with a small molecular compound inhibiting c-Met, crizotinib (Selleck chemical) and beta-catenin inhibitor XAV-939 (Selleck chemical). In particular, 72 hours after the antibody treatment, 100 uL of CellTiter Glo solution (Promega, G7572) was added to each well and left at room temperature for 30 minutes. The number of the cells was counted through luminescence signal, and the luminescence signal was recorded using Envision 2104 Multi-label Reader (Perkin Elmer). In the experiment, L3-1Y/IgG2 was used at the amount of 0, 0.016, 0.08, 0.4, and 2 μg/ml, and XAV-939 was used at the fixed amount of 5 uM.

HCC1954 cells = experiment: HCC1954 cell proliferation with beta-catenin siRNA reverse transfection; conditions: c-Met inhibitor treated alone (L3-1Y/IgG2 0-2 μg/ml; crizotinib 0-20 nM), 72 hours
Excerpt: (§1) To confirm the effect of co-administration of c-Met inhibitor (anti-c-Met antibody L3-1Y/IgG2 or crizotinib) and beta-catenin siRNA in a cancer cell on which a c-Met inhibitor has no effect when administered alone, a breast cancer cell line HCC1954 (ATCC, CRL 2338) and a kidney cancer cell line Caki-1 (ATCC) were used for assaying the effect of the co-administration.
(§2) In particular, in 96-well plate, beta-catenin siRNA (Dharmacon, SMARTpool) was subjected to reverse transfection into 5000 cells/well of HCC1954 cell or Caki-1 cell and the cells were incubated (medium: 10% FBS in RPMI 1640 (GIBCO), incubation temperature: 37° C.). […] The number of the cells was counted through luminescence signal, and the luminescence signal was recorded using Envision 2104 Multi-label Reader (Perkin Elmer).

Caki-1 cells = experiment: Caki-1 cell proliferation with beta-catenin siRNA reverse transfection; conditions: c-Met inhibitor treated alone (L3-1Y/IgG2 0-2 μg/ml; crizotinib 0-20 nM), 72 hours
Excerpt: as §1, §2

## C[C@@H](Oc1cc(-c2cnn(C3CCNCC3)c2)cnc1N)c1c(Cl)ccc(F)c1Cl [crizotinib, 3-[(1R)-1-(2,6-dichloro-3-fluorophenyl)ethoxy]-5-(1-piperidin-4-ylpyrazol-4-yl)pyridin-2-amine, reference compound]
HT-29 cells
  cell proliferation inhibition effect: no cell proliferation inhibition effect is observed
Lovo cells
  cell proliferation inhibition effect: no cell proliferation inhibition effect is observed
HCC1954 cells
  cell proliferation inhibition effect: no cell proliferation inhibition effect is observed
Caki-1 cells
  cell proliferation inhibition effect: no cell proliferation inhibition effect is observed
